For four compounds, Activity results are on record in ChEMBL document CHEMBL1157261, “Neuroprotective 2-(2-phenylethyl)chromones of Imperata cylindrica” (2006).

Each structure is given as a SMILES string.

The test is described as follows: Neuroprotective activity against glutamate-induced neurotoxicity in Sprague-Dawley rat cortical cells at 10 uM after 24 hrs by MTT assay relative to control. Type of test: functional. Background: Tetrazolium dyes change colour on reduction, which living cells bring about.
As to `O=c1cc(/C=C/c2ccccc2)oc2cccc(O)c12`, the Activity was -11.3%. Then `O=c1cc(CCc2ccccc2)oc2cccc(O)c12`, with 67%; and `O=c1cc(CCc2ccccc2O)oc2cccc(O)c12`, with 63.6%. Then `C[C@]12N[C@H](Cc3ccccc31)c1ccccc12.O=C(O)/C=C\C(=O)O` [DIZOCILPINE MALEATE], with 82.2%.
